ChEMBL document CHEMBL2390923, “Synthesis of 7-oxabicyclo[2.2.1]hept-5-en-2-yl derivatives and their screening for antimicrobial and antioxidant properties” (2013)
Values after ≈ are worked out from the molar mass of the structure shown.

How the values were obtained:
Format in all cases: functional
Staphylococcus aureus [1] = assay: Antibacterial activity against Staphylococcus aureus at 150 mg/ml after 24 hrs by well diffusion assay; conditions: read-out: DIZ
Escherichia coli [2] = assay: Antibacterial activity against Escherichia coli at 125 mg/ml after 24 hrs by well diffusion assay; conditions: read-out: DIZ
Bacillus subtilis [3] = assay: Antibacterial activity against Bacillus subtilis after 18 to 24 hrs by microdilution broth assay
Klebsiella pneumoniae [4] = assay: Antibacterial activity against Klebsiella pneumoniae at 150 mg/ml after 24 hrs by well diffusion assay; conditions: read-out: DIZ
Escherichia coli [5] = assay: Antibacterial activity against Escherichia coli at 150 mg/ml after 24 hrs by well diffusion assay; conditions: read-out: DIZ
Klebsiella pneumoniae [6] = assay: Antibacterial activity against Klebsiella pneumoniae after 18 to 24 hrs by microdilution broth assay
Staphylococcus aureus [7] = assay: Antibacterial activity against Staphylococcus aureus at 125 mg/ml after 24 hrs by well diffusion assay; conditions: read-out: DIZ
Vibrio cholerae [8] = assay: Antibacterial activity against Vibrio cholerae after 18 to 24 hrs by microdilution broth assay
[9] = system: Radical scavenging activity; assay: Antioxidant activity assessed as DPPH radical scavenging activity after 30 mins; design: concentration or dose not given beside the values
Escherichia coli [10] = assay: Antibacterial activity against Escherichia coli after 18 to 24 hrs by microdilution broth assay
Staphylococcus aureus [11] = assay: Antibacterial activity against Staphylococcus aureus after 18 to 24 hrs by microdilution broth assay
Escherichia coli [12] = assay: Antibacterial activity against Escherichia coli at 100 mg/ml after 24 hrs by well diffusion assay; conditions: read-out: DIZ
Vibrio cholerae [13] = assay: Antibacterial activity against Vibrio cholerae at 125 mg/ml after 24 hrs by well diffusion assay; conditions: read-out: DIZ
Vibrio cholerae [14] = assay: Antibacterial activity against Vibrio cholerae at 100 mg/ml after 24 hrs by well diffusion assay; conditions: read-out: DIZ
Bacillus subtilis [15] = assay: Antibacterial activity against Bacillus subtilis at 150 mg/ml after 24 hrs by well diffusion assay; conditions: read-out: DIZ
Staphylococcus aureus [16] = assay: Antibacterial activity against Staphylococcus aureus at 100 mg/ml after 24 hrs by well diffusion assay; conditions: read-out: DIZ
Vibrio cholerae [17] = assay: Antibacterial activity against Vibrio cholerae at 150 mg/ml after 24 hrs by well diffusion assay; conditions: read-out: DIZ
Klebsiella pneumoniae [18] = assay: Antibacterial activity against Klebsiella pneumoniae at 125 mg/ml after 24 hrs by well diffusion assay; conditions: read-out: DIZ
Bacillus subtilis [19] = assay: Antibacterial activity against Bacillus subtilis at 100 mg/ml after 24 hrs by well diffusion assay; conditions: read-out: DIZ
Bacillus subtilis [20] = assay: Antibacterial activity against Bacillus subtilis at 125 mg/ml after 24 hrs by well diffusion assay; conditions: read-out: DIZ
Klebsiella pneumoniae [21] = assay: Antibacterial activity against Klebsiella pneumoniae at 100 mg/ml after 24 hrs by well diffusion assay; conditions: read-out: DIZ

Compound	zone of inhibition at 150000 µg/mL (Staphylococcus aureus [1]) [mm]	zone of inhibition at 125000 µg/mL (Escherichia coli [2]) [mm]	MIC (Bacillus subtilis [3]) [µg/mL]	zone of inhibition at 150000 µg/mL (Klebsiella pneumoniae [4]) [mm]	zone of inhibition at 150000 µg/mL (Escherichia coli [5]) [mm]	MIC (Klebsiella pneumoniae [6]) [µg/mL]	zone of inhibition at 125000 µg/mL (Staphylococcus aureus [7]) [mm]	MIC (Vibrio cholerae [8]) [µg/mL]	inhibition [9] [%]	MIC (Escherichia coli [10]) [µg/mL]	MIC (Staphylococcus aureus [11]) [µg/mL]	zone of inhibition at 100000 µg/mL (Escherichia coli [12]) [mm]	zone of inhibition at 125000 µg/mL (Vibrio cholerae [13]) [mm]	zone of inhibition at 150000 µg/mL (Bacillus subtilis [15]) [mm]	zone of inhibition at 100000 µg/mL (Staphylococcus aureus [16]) [mm]	zone of inhibition at 150000 µg/mL (Vibrio cholerae [17]) [mm]	zone of inhibition at 125000 µg/mL (Klebsiella pneumoniae [18]) [mm]	zone of inhibition at 100000 µg/mL (Bacillus subtilis [19]) [mm]	zone of inhibition at 125000 µg/mL (Bacillus subtilis [20]) [mm]	zone of inhibition at 100000 µg/mL (Klebsiella pneumoniae [21]) [mm]	further results
CCC12C=CC(O1)C(C(=O)c1ccccc1)C2c1ccc(F)cc1 (stereo not drawn)	15	11	625 (≈ 1940 µM)	12	13	625 (≈ 1940 µM)	13	625 (≈ 1940 µM)	42.4	625 (≈ 1940 µM)	1250 (≈ 3880 µM)	10	–	–	–	–	–	–	–	–	–
CCC12C=CC(O1)C(C(=O)c1ccccc1)C2c1cccc(F)c1 (stereo not drawn)	16	11	1250 (≈ 3880 µM)	12	12	312 (≈ 968 µM)	14	625 (≈ 1940 µM)	22.3	1250 (≈ 3880 µM)	625 (≈ 1940 µM)	–	14	12	11	15	11	–	–	–	zone of inhibition at 100000 µg/mL (Vibrio cholerae [14]): 12 mm
CCC12C=CC(O1)C(C(=O)c1cccc(Br)c1)C2c1ccccc1 (stereo not drawn)	–	12	625 (≈ 1630 µM)	–	14	312 (≈ 814 µM)	–	625 (≈ 1630 µM)	36	625 (≈ 1630 µM)	625 (≈ 1630 µM)	–	–	–	–	12	–	–	–	–	–
CCC12C=CC(O1)C(C(=O)c1ccccc1)C2c1ccc([N+](=O)[O-])cc1 (stereo not drawn)	13	14	1250 (≈ 3580 µM)	–	14	625 (≈ 1790 µM)	–	1250 (≈ 3580 µM)	21.6	1250 (≈ 3580 µM)	1250 (≈ 3580 µM)	12	–	–	–	–	–	–	–	–	–
O=C(O)c1cn(C2CC2)c2cc(N3CCNCC3)c(F)cc2c1=O [CIPROFLOXACIN]	16	–	125 (≈ 377 µM)	23	–	7 (≈ 21.1 µM)	16	15 (≈ 45.3 µM)	–	62 (≈ 187 µM)	15 (≈ 45.3 µM)	–	16	18	16	16	23	18	18	23	zone of inhibition at 100000 µg/mL (Vibrio cholerae [14]): 16 mm
CCC12C=CC(O1)C(C(=O)c1ccccc1)C2c1ccc(Cl)cc1 (stereo not drawn)	13	–	322 (≈ 950 µM)	15	–	156 (≈ 460 µM)	–	625 (≈ 1840 µM)	35.5	312 (≈ 921 µM)	625 (≈ 1840 µM)	–	13	–	–	14	11	–	–	–	zone of inhibition at 100000 µg/mL (Vibrio cholerae [14]): 11 mm
CCC12C=CC(O1)C(C(=O)c1ccccc1)C2c1ccc(Br)cc1 (stereo not drawn)	14	14	312 (≈ 814 µM)	12	18	156 (≈ 407 µM)	13	625 (≈ 1630 µM)	30.5	312 (≈ 814 µM)	156 (≈ 407 µM)	–	11	12	11	12	11	–	–	–	–
CCC12C=CC(O1)C(C(=O)c1ccc(Br)cc1)C2c1ccccc1 (stereo not drawn)	17	16	78 (≈ 204 µM)	16	17	78 (≈ 204 µM)	13	312 (≈ 814 µM)	32.6	78 (≈ 204 µM)	1250 (≈ 3260 µM)	12	10	17	11	11	14	12	14	11	–
CCC12C=CC(O1)C(C(=O)c1ccccc1)C2c1ccccc1Br (stereo not drawn)	16	14	1250 (≈ 3260 µM)	11	15	625 (≈ 1630 µM)	14	625 (≈ 1630 µM)	17.7	1250 (≈ 3260 µM)	1250 (≈ 3260 µM)	11	–	–	13	–	–	–	–	–	–
CCC12C=CC(O1)C(C(=O)c1ccccc1)C2c1ccc(OC)cc1 (stereo not drawn)	13	–	625 (≈ 1870 µM)	–	–	625 (≈ 1870 µM)	11	625 (≈ 1870 µM)	15.1	625 (≈ 1870 µM)	1250 (≈ 3740 µM)	–	14	–	–	17	–	–	–	–	zone of inhibition at 100000 µg/mL (Vibrio cholerae [14]): 12 mm
CCC12C=CC(O1)C(C(=O)c1ccccc1)C2c1ccc(C#N)cc1 (stereo not drawn)	13	15	156 (≈ 474 µM)	15	16	156 (≈ 474 µM)	11	1250 (≈ 3790 µM)	58.9	156 (≈ 474 µM)	156 (≈ 474 µM)	11	–	15	–	–	13	11	13	10	–
CCC12C=CC(O1)C(C(=O)c1ccccc1)C2c1ccccc1F (stereo not drawn)	16	–	1250 (≈ 3880 µM)	14	12	625 (≈ 1940 µM)	15	625 (≈ 1940 µM)	18.1	1250 (≈ 3880 µM)	1250 (≈ 3880 µM)	–	–	–	13	–	13	–	–	10	–
CCC12C=CC(O1)C(C(=O)c1ccccc1)C2c1cccc(Br)c1 (stereo not drawn)	15	12	312 (≈ 814 µM)	14	15	156 (≈ 407 µM)	12	625 (≈ 1630 µM)	23.2	312 (≈ 814 µM)	31 (≈ 80.9 µM)	–	–	17	11	11	12	11	14	–	–
CCC12C=CC(O1)C(C(=O)c1ccccc1)C2c1ccccc1Cl (stereo not drawn)	16	14	1250 (≈ 3690 µM)	12	16	625 (≈ 1840 µM)	15	625 (≈ 1840 µM)	22.2	1250 (≈ 3690 µM)	1250 (≈ 3690 µM)	13	12	13	12	14	11	10	12	9	zone of inhibition at 100000 µg/mL (Vibrio cholerae [14]): 11 mm
CCC12C=CC(O1)C(C(=O)c1ccccc1)C2c1cccc(OC)c1 (stereo not drawn)	17	15	625 (≈ 1870 µM)	13	16	312 (≈ 933 µM)	15	625 (≈ 1870 µM)	33.4	625 (≈ 1870 µM)	625 (≈ 1870 µM)	13	–	–	–	–	12	–	–	–	–
Cc1cc(C(C)(C)C)c(O)c(C(C)(C)C)c1	–	–	–	–	–	–	–	–	58.4	–	–	–	–	–	–	–	–	–	–	–	–
CCC12C=CC(O1)C(C(=O)c1ccccc1)C2c1ccccc1 (stereo not drawn)	–	14	312 (≈ 1030 µM)	19	15	4 (≈ 13.1 µM)	–	1250 (≈ 4110 µM)	58.9	312 (≈ 1030 µM)	625 (≈ 2050 µM)	–	–	18	–	–	16	12	16	13	–
